The numbers were not newly measured in patent US20070071819A1, “MULTIPLE UNIT MODIFIED RELEASE COMPOSITIONS OF CARBAMAZEPINE AND PROCESS FOR THEIR PREPARATION” (priority 2005, published 2007), which cites them from elsewhere.

The conditions of the series: below 4 μg/ml ineffective; greater than 12 μg/ml increased chances of side-effects.

For `NC(=O)N1c2ccccc2C=Cc2ccccc21` [carbamazepine, 5H-dibenz-[b,f]azepine-5-carboxamide], the “therapeutic blood serum concentration range” value is 4 to 12 µg/mL.
